Experimental data reported in US20200171022A1, “FLT3 INHIBITORS FOR IMPROVING PAIN TREATMENTS BY OPIOIDS” (INSERM (Institut National de la Santé et da la Recherche …, priority 2017, published 2020).

Tests used:
wild-type (Flt3+/+) mice = test: Mechanical pain hypersensitivity after repeated morphine, von Frey test (Example 3); conditions: morphine 10 mg/kg twice a day for 4 days, compared to saline
Procedure: Experiments were performed in male mice carrying a homozygous deletion of Flt3 (F1t3KO mice)^24 and their littermates (WT) weighing 25-30 g. […] Animals were maintained in a climate-controlled room on a 12 h light/dark cycle and allowed access to food and water ad libitum. To limit the stress induced by the experimental procedure, the general plan for an experimental phase was as follows: • arrival and housing of the animals: 4 days; • evaluation of nociceptive threshold baseline; • repeated opioid administration and evaluation of treatment effects
Filaments were applied perpendicularly to the plantar surface of the paw. The 50% paw withdrawal threshold was determined in grams by the Dixon nonparametric test. The protocol was repeated until three changes in behavior occurred.
(§1) Data are presented as mean±S.E.M. To evaluate the time-course effects of treatments and individual group comparisons, one-way and two-way ANOVA with repeated measurements were performed followed by Dunnett's post hoc test. Bonferroni's test was used for multiple comparisons between groups. A difference was accepted as significant if the probability that it occurred by chance alone was less than 5% (P<0.05).

Male Sprague-Dawley rats [1] = test: Potentiation of morphine-induced analgesia and morphine-dose sparing, paw pressure test (Example 4); conditions: for pressure exerted on the hindpaw to obtain withdrawal: BDT001 1 mg/kg, morphine 1.5 mg/kg, mean±S.E.M., 6 animals, saline 250±7.4 g
Procedure: (§2) Paw pressure test: Mechanical hyperalgesia was measured as the threshold to a noxious mechanical stimulus. […] Briefly, a constantly increasing pressure is applied to the rat hind paw until vocalization occurs. A Basile analgesimeter (Bioseb, France; stylus tip diameter, 1 mm) was used. A 600-g cut-off value was determined to prevent tissue damage.
To evaluate the group effects of treatments, two-way ANOVA with repeated measurements were performed followed by Dunnett's post-hoc test. Newman-Keul's test was used for multiple comparisons between groups. A difference was accepted as significant if the probability that it occurred by chance alone was less than 5% (P<0.05).

Male Sprague-Dawley rats [2] = test: Tolerance to morphine analgesia after chronic morphine treatment, paw pressure test (Example 5); type: in vivo, rat; conditions: morphine 2 mg/kg s.c. twice daily for 4 days, D0 to D4, control animals
Procedure: Rats were kept under controlled environmental conditions (22° C., 60% relative humidity, 12 h light/dark cycle with lights on at 7:00 A.M., food and water ad libitum). To limit the stress induced by the experimental procedure, the general plan for an experimental phase was as follows: • arrival and housing of the animals: 4 days; • acclimatization of the animals for 10 days to the experimental conditions in order to avoid any possibility of measurement bias being induced by stress; • evaluation of nociceptive threshold baseline • repeated opioid administration and evaluation of treatment effects
as §2
Intrathecal injection was performed via manual lumbar puncture over one minute under anesthesia (isoflurane).
Data are presented as mean±S.E.M. To evaluate the time-course effects of treatments and individual group comparisons, one-way and two-way ANOVA with repeated measurements were performed followed by Dunnett's post hoc test. Bonferroni's test was used for multiple comparisons between groups. […]

Male Sprague-Dawley rats [3] = test: Morphine-induced mechanical pain hypersensitivity and latent pain sensitization, paw pressure test (Example 6); conditions: morphine 2 mg/kg twice daily for 4 days; observed on D2, back to baseline on D9
Procedure: Rats were kept under controlled environmental conditions (22° C., 60% relative humidity, 12 h light/dark cycle with lights on at 7:00 A.M., food and water ad libitum). To limit the stress induced by the experimental procedure, the general plan for an experimental phase was as follows: • arrival and housing of the animals: 4 days; • acclimation of the animals for 10 days to the experimental conditions in order to avoid any possibility of measurement bias being induced by stress; • evaluation of nociceptive threshold baseline • repeated opioid administration and evaluation of treatment effects
Mechanical hyperalgesia was measured as the threshold to a noxious mechanical stimulus. […] Briefly, a constantly increasing pressure is applied to the rat hind paw until vocalization occurs. A Basile analgesimeter (Bioseb, France; stylus tip diameter, 1 mm) was used. A 600-g cut-off value was determined to prevent tissue damage.
as §1

CN1CC[C@]23c4c5ccc(O)c4O[C@H]2[C@@H](O)C=C[C@H]3[C@H]1C5 [morphine]
nociceptive threshold (mechanical pain hypersensitivity) after repeated morphine (wild-type (Flt3+/+) mice): induced a decrease in the nociceptive threshold | pressure exerted on the hindpaw to obtain withdrawal (Male Sprague-Dawley rats [1]; 30 min after administration): 502.5 ± 20.0 g | morphine-induced analgesia (area under the curve) (Male Sprague-Dawley rats [1]; morphine 0.5, 1, 1.5 or 2 mg/kg s.c. alone): induced analgesia in a dose-dependent manner | morphine-induced analgesia (percentage of MPE) on repeated morphine administration (Male Sprague-Dawley rats [2]): induced a progressive decrease in morphine-induced analgesia | nociceptive threshold (pain hypersensitivity) in morphine-treated animals (Male Sprague-Dawley rats [3]): significant decrease in the nociceptive threshold

O=C(Nc1cc(Cl)ccc1O)c1cccc(S(=O)(=O)N2CCCCC2)c1 [BDT001, N-(5-chloro-2-hydroxyphenyl)-3-(piperidin-1-ylsulfonyl)benzamide]
pressure exerted on the hindpaw to obtain withdrawal (Male Sprague-Dawley rats [1]; 30 min after administration): 252.5 ± 9.0 g | morphine-dose sparing effect (Male Sprague-Dawley rats [1]; BDT001 1 mg/kg i.p.): 30% | analgesia by itself (Male Sprague-Dawley rats [1]; BDT001 1 mg/kg i.p. alone, 30 min after administration): did not produced analgesia by itself
